Tested on: IGF-1
Assay: Test Example 3: action of various capsaicinoids on mouse IGF-1 (test solutions on back skin)
Format: in vivo
Settings: mouse, in vivo

Compound | amount of IGF-1 in the mouse back skin compared to the base preparation
CCCCCCCCC(=O)NCc1ccc(O)c(OC)c1 [nonylic vanillylamide] | significantly elevated
COc1cc(CNC(=O)CCCCCC(C)C)ccc1O [nordihydrocapsaicin] | significantly elevated

Same assay, conditions: test solution containing 0.01% by mass in ethanol/physiological saline; 0.2 mL/cm^2 on back skin; 30 minutes after application; p<0.01 (FIG. 3, FIG. 4)

Compound | amount of IGF-1 in the mouse back skin compared to the base preparation
COc1cc(CNC(=O)CCCC/C=C/C(C)C)ccc1O [capsaicin, (6E)-N-[(4-hydroxy-3-methoxyphenyl)methyl]-8-methyl-6-nonenamide, reference compound] | significantly elevated
COc1cc(COC(=O)CCCC/C=C/C(C)C)ccc1O [capsiate] | significantly elevated
COc1cc(CNC(=O)CCCCCCC(C)C)ccc1O [dihydrocapsaicin] | significantly elevated
COc1cc(COC(=O)CCCCCCC(C)C)ccc1O [dihydrocapsiate] | significantly elevated
COc1cc(COC(=O)CCCCCC(C)C)ccc1O [nordihydrocapsiate] | significantly elevated
